Measurements from patent publication US5250542A, “Peripherally selective piperidine carboxylate opioid antagonists” (Eli Lilly and Company, priority 1992, dated 1993).
Where a name gives a salt, the structure may show the parent alone. Read-outs that look alike come from different tables or passages of the source.

Experiments:
[1] = target: T1, opioid receptor (Mus musculus, UniProt P42866); test: mouse writhing analgesis test: block of morphine-induced analgesia; assay type: in vivo, CF-1 male mice; design: unit not given here; conditions: dose of antagonist that reduced the inhibition of writhing produced by 1.25 mg/kg morphine sulfate to 50%; subcutaneous, 20 min before acetic acid
T1 construct: Five CF-1 male mice (Charles River, Portage, Mich.); from tissue; host or cells: living CF-1 male mice (in vivo test; endogenous receptor)
Procedure: In order to determine in vivo opioid receptor antagonism, the mouse writhing analgesis test was used. Test compounds were measured for their ability to block morphine-induced analgesia.
Five CF-1 male mice (Charles River, Portage, Mich.), weighing approximately 20 g after being fasted overnight, were observed simultaneously for the writhing response. The writhing response was defined as a contraction of the abdominal musculature, followed by the extension of the hind limbs, and was induced by the intraperitoneal adminstration of 0.6% acetic acid in a volumne of 1 ml/100 g body weight. The observation period was 10 min. in duration, beginning 5 min. after injection of acetic acid. The percent inhibition of writhing was calculated from the average number of writhes in the control (non-drug) group. Each data point is the mean (±standarderror) for five mice. The ED50 was defined as the dose of agonist that inhibited mean writhing by 50%. […] Each mouse was only used once. All drugs were administered subcutaneously (1 ml/100 g bwt) 20 min. before the injection of acetic acid.

[2] = target: T2, peripheral opioid receptors (Mus musculus, UniProt P42866); test: precipitated diarrhea in morphine-maintained mice (peripheral opioid activity) and comparison with the writhing test; assay type: in vivo; conditions: for Ratio (AD50 mouse writhing test / ED50 mouse diarrhea test): higher ratio = greater relative antagonism of peripheral opioid receptors; for ED50: mouse, 0.5 h, morphine-maintained mice, antagonist subcutaneous or oral, 30 min observation
T2 construct: Mice maintained (6 mice/cage) on 0.01M saccharin water with 1 g/1 morphine sulfate; from tissue; host or cells: living morphine-maintained mice (in vivo test; endogenous receptor)
Procedure: Determinations of peripheral opioid activity were conducted. Mice maintained (6 mice/cage) on 0.01M saccharin water with 1 g/1 morphine sulfate for a minimum of 10 days with mice averaging 3.0^+ g water/mouse/day for at least three days are used as subjects. The morphine water was removed 45 min. prior to injection with the proposed opioid antagonist. Initial testing consisted of 5 mice/dose of compound. The antagonist was given by the subcutaneous or oral, route of administration,and the mice were placed in 11-14"×4 7/12 I.D. clear plastic cylinders with white paper towels used for a floor.
The mice were then monitored visually for 30 minutes post-injection for the presence of jumping and of diarrhea. Jumping was scored as positive if at least one jump occurred in 30 min. Diarrhea was scored as positive when feces were moist enough to stain the white paper at the base of the cylinder. After 30 minutes of testing, the mice were placed back in original cages, put back on morphine water, and not tested again for 48 hrs. Lower doses of the antagonist compounds were tested until threshold doses for diarrhea were determined. Diarrhea is a peripherally mediated sign of precipitated opiate abstinence.
The extent of the effect on peripheral activity compared to central activity of the present compounds can-be determined by comparing the AD50 for the mouse writhing test with the ED50 for the mouse diarrhea test. The higher the ratio, the greater the relative antagonism of the peripheral opioid receptors by a particular compound.

[3] = target: T3, mu receptor (Rattus norvegicus, UniProt P33535); test: opioid receptor binding assay, [3H] NAL (tritiated naloxone), mu receptor; design: species or system rat (Male Sprague Dawley), brain minus cerebellum; conditions: for inhibition at 0.01 µM / inhibition at 0.1 µM: 20 min
T3 construct: rat whole brain minus cerebellum for mu was homogenized; from tissue; host or cells: brain of male Sprague Dawley rats, whole brain minus cerebellum, homogenate fraction
Procedure: This assay was conducted by the following procedure.
Male Sprague Dawley rats for mu site experiments were sacrificed via decapitation and the brains were removed. The brain tissue, rat whole brain minus cerebellum for mu was homogenized in a Teflon and glass tissue homogenizer. A supernatant I, pellet IV, fraction was frozen in a nitrogen freezer at 1.33 g/ml concentration and stored for not longer than five weeks prior to use. Pellets were rehydrated with physiological buffer prior to use.
The reaction was initiated by the addition of the resuspended tissue which had been preincubated at 37° C. for 20 minutes. The reaction mixture was incubated in a 37° C. water bath for 20 minutes. The reaction was terminated by rapid filtration, (Brandel Cell Harvestor), through Whatman GF/B glass filters that had been presoaked in Krebs-Hepes buffer pH 7.4. The filters were then washed 2x with 5 ml of ice cold Krebs-Hepes buffer pH 7.4. Washed filters were placed in scintillation vials and 10 ml RedySolv, (Brandel), was added and samples counted in a Searle D-300 beta counter. Means and standard error statistics were calculated for triplicate experimental determinations in certain cases. The incubation time for the reaction mixture was 20 minutes at 37° C.
Ki values were calculated using a minitab statistical program according to the following formula: [formula] wherein IC50 is the concentration at which 50% of the ^3 H ligand is displaced by the test compounds and KD is the dissociation constant for the ^3 H ligand at the receptor site. KD can be determined as described by Bennett, "Methods in Binding Studies", Neurotransmitter Receptor Binding, Yamamura, et al., ed., p. 57-90, Raven Press, N.Y. (1978) incorporated herein by reference.
In the Table, column 1 sets forth the Example Number of the compound evaluated, column 2 the Ki value in nanomolar (nM) at the mu receptor and columns 3 and 4 the percent displacement by the test compound at the indicated concentration, i.e., 10 nm or 100 nm.

[4] = read-out: % displacement at 10 nM, 10 nM test compound, [3H] naloxone 0.5 nM
[5] = read-out: % displacement at 100 nM
[6] = read-out: % displacement at 100 nM, 100 nM test compound, [3H] naloxone 0.5 nM

T3 sequence (P33535 whole entry): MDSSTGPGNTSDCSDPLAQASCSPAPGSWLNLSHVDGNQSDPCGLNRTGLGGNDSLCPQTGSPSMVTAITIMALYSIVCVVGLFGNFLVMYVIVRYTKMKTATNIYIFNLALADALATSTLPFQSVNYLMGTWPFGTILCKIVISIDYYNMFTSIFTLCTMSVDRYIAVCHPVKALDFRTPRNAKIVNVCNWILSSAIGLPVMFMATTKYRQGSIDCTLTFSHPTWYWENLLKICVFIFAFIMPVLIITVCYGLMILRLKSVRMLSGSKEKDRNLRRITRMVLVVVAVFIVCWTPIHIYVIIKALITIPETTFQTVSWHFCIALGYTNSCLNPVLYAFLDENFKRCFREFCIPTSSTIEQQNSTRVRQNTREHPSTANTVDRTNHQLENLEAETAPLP
T2 sequence (P42866 whole entry): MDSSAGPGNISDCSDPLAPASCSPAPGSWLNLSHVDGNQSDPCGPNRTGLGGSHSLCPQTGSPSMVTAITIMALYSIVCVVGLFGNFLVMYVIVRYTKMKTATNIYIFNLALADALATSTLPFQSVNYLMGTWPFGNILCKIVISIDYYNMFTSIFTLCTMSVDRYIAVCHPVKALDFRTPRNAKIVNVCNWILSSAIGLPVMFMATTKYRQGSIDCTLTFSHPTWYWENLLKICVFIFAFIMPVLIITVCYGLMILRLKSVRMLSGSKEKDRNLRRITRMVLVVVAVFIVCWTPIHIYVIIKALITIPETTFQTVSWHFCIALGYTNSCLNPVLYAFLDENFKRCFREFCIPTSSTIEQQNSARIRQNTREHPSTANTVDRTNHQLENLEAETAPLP
T1 sequence (P42866 whole entry): as above

Row | Structure (SMILES) | AD50 [1] | Ratio (AD50 mouse writhing test / ED50 mouse diarrhea test) [2] | ED50 [2] | Ki [3] | inhibition at 0.01 µM [3, 4] | inhibition at 0.1 µM [3, 5] | inhibition at 0.1 µM [3, 6] | inhibition at 0.01 µM ([3]; 10 nM test compound, [3H] naloxone 0.5 nM, read-out: % displacement at 10 nM) | inhibition at 0.01 µM ([3]; read-out: % displacement at 10 nM)
1 | CCNC(=O)CCCNC(=O)C(CC1CCCCC1)CN1CC[C@@](C)(c2cccc(O)c2)[C@@H](C)C1 (stereo partly shown) [Example 42, N-[4-(ethylamino)-4-oxobutyl]-3-[4-(3--hydroxyphenyl)-3,4-dimethyl-1-piperidinyl[-2-cyclohexyl-methylpropanamide monohydrate hydrochloride] | 2.1 | 8 | 0.26 mg/kg | 0.57 nM | 100% | 97% | – | – | –
2 | CNC(=O)CNC(=O)C(CCN1CC[C@@](C)(c2cccc(O)c2)[C@@H](C)C1)C1CCCCC1 (relative stereo) [Example 21, N-[2-(methylamino)-2-oxoethyl]-4-[4-(3-hydroxyphenyl)-3,4-dimethyl-1-piperidinyl]-2-cyclohexyl butanamide hydrochloride] | > 20 | > 125 | 0.16 mg/kg | 0.45 nM | 96% | – | 100% | – | –
3 | C[C@H]1CN(CC(Cc2ccccc2)C(=O)NCC(=O)NCC(=O)O)CC[C@@]1(C)c1cccc(O)c1 (relative stereo) [Example 68, N-(carboxylmethyl-)-2-[[3-[4-(3-hydroxyphenyl)-3,4-dimethyl-1-piperidinyl]-2-(phenylmethyl)-1-oxopropyl]amino]acetamide monohydrate] | > 40 | > 174 | 0.23 mg/kg | 1.51 nM | 79% | – | 86% | – | –
4 | C[C@H]1CN(CC(CC2CCCCC2)C(=O)NCCCC(N)=O)CC[C@@]1(C)c1cccc(O)c1 (stereo partly shown) [Example 40, 4-[[1-oxo-2-(cyclohexylmethyl)-3-[4-(3-hydroxyphenyl)-3,4-dimethyl-1-piperidinyl]propyl]-amino]butanamide hydrochloride] | 4.5 | 3.5 | 1.3 mg/kg | 0.75 nM | 95% | – | 100% | – | –
5 | CCOC(=O)CNC(=O)C(Cc1ccccc1)CN1CC[C@@](C)(c2cccc(O)c2)[C@@H](C)C1 (stereo partly shown) [Example 43, 2-[3-[4-(3-hydroxyphenyl)-3,4-dimethyl-1-piperidinyl]-1-oxo-2-(phenylmethyl)propyl]-amino]acetic acid ethyl ester hydrochloride] | 1.9 | 146 | 0.013 mg/kg | 0.64 nM | 98% | – | 99% | – | –
6 | CCNC(=O)CNC(=O)C(CCN1CC[C@@](C)(c2cccc(O)c2)[C@@H](C)C1)C1CCCCC1 (relative stereo) [Example 22, N-[2-(ethylamino)-2-oxoethyl]-4-[4-(3-hydroxyphenyl)-3,4-dimethyl-1-piperidinyl]-2-cyclohexyl butanamide hydrochloride] | > 40 | > 500 | 0.08 mg/kg | 0.33 nM | 100% | – | 96% | – | –
7 | COC(=O)COC(=O)CNC(=O)C(Cc1ccccc1)CN1CC[C@@](C)(c2cccc(O)c2)[C@@H](C)C1 (relative stereo) [Example 85] | 9.5 | 190 | 0.05 mg/kg | – | – | 98% | – | 93% | –
8 | C[C@H]1CN(CC(Cc2ccccc2)C(=O)NCC(=O)O)CC[C@@]1(C)c1cccc(O)c1 (single isomer, unassigned; (+)) [Example 97E, monohydrate] | 8.9 | 127 | 0.07 mg/kg | – | – | 90% | – | – | 80%
9 | CCNC(=O)CNC(=O)C(CC1CCCCC1)CN1CC[C@@](C)(c2cccc(O)c2)[C@@H](C)C1 (relative stereo) [Example 31, N-ethyl-2-[[3-[4-(3-hydroxyphenyl)-3,4-dimethyl-1-piperidinyl]-2-(cyclohexylmethyl)-1-oxo-propyl]amino]acetamide monohydrochloride monohydrate] | 5.3 | 38 | 0.14 mg/kg | 0.4 nM | 100% | 97% | – | – | –
10 | CC(C)NC(=O)CNC(=O)C(Cc1ccccc1)CN1CC[C@@](C)(c2cccc(O)c2)[C@@H](C)C1 (stereo partly shown) [Example 48, N-(1-methylethyl)-2-[[3-[4-(3-hydroxyphenyl)-3,4-dimethyl-1-piperidinyl]-2-(phenylmethyl)-1-oxopropyl]amino]acetamide hydrochloride monohydrate] | > 40 | > 400 | 0.1 mg/kg | 1.82 nM | 96% | – | 100% | – | –
11 | C[C@H]1CN(CCC(C(=O)NCCCC(=O)O)C2CCCCC2)CC[C@@]1(C)c1cccc(O)c1 (relative stereo) [Example 28, 4-[[2-cyclohexyl-4-[4-(3-hydroxyphenyl)-3,4-dimethyl-1-piperidinyl]-1-oxobutyl]amino]-butanoic acid monohydrate] | > 40 | > 4000 | 0.01 mg/kg | 3.09 nM | 86% | – | 95% | – | –
12 | CNC(=O)CNC(=O)C(CC1CCCCC1)CN1CC[C@@](C)(c2cccc(O)c2)[C@@H](C)C1 (relative stereo) [Example 32, N-[2-methylamino-2-oxoethyl]-3-[4-(3-hydroxphenyl)-3,4-dimethyl(-1-piperidinyl]-2-cyclohexylmethylpropanamidemonohydrochloride] | 7.3 | 45 | 0.16 mg/kg | 0.72 nM | 97% | – | 100% | – | –
13 | C[C@H]1CN(CC(CC2CCCCC2)C(=O)NCC(N)=O)CC[C@@]1(C)c1cccc(O)c1 (relative stereo) [Example 33, 2-[[3-[4-(3-hydroxyphenyl)-3,4-dimethyl-1-piperidinyl]-2-(cyclohexylmethyl)-1-oxophenyl]amino]acetamide monohydrochloride] | 10.2 | 60 | 0.17 mg/kg | 1.19 nM | 95% | – | 100% | – | –
